SMILES strings stand for the structures.

The text below walks through data of a melting point compilation (Tetko et al.; mined from patent text by program, amines drawn as free bases though some values may be those of a salt).

As for `Cc1cc(C)cc(Sc2cccc(N)c2C#N)c1`, the melting point (commonly the temperature of the solid-liquid transition) is 124 to 125 °C. With `Cc1ccnc2c1C(=O)CC(c1nccs1)C2` (configuration not stated), the melting point lay within 88 to 89 °C. `CCOC(=O)c1ncn2c1[C@@H]1CCCN1C(=S)c1ccccc1-2`: the melting point lay in the range of 227 to 229 °C. With `Cc1ccc(NC(=O)c2cn(-c3ccccc3)c3ccccc3c2=O)nc1`, the melting point was in the range of 248 to 250 °C. `COC(=O)[C@H](O)CCCc1ccc(OCc2nc(-c3ccco3)oc2C)c(OC)c1` registered a melting point of 80 to 81 °C. Molecule `CCOC(=O)c1c(Cl)c2cscc2[nH]c1=O` registered a melting point of 157 °C. As for `Cc1c(C)c(N2CCN(C(=O)OC(C)(C)C)CC2)c(C)c2c1OC(C)(C)C2N1CCCC1` (configuration not stated), the figure is 127 to 128 °C. Turning to `CC(=O)C1CCC2C3CC=C4CCCCC4(C)C3CCC12C` (configuration not stated), the melting point lay in the range of 207 to 209 °C. In the case of `ClCCCSc1nnnn1-c1ccccc1`, the melting point fell in the range of 33 to 34 °C.

Molecule `C(=Nc1ncc[nH]1)c1ccccc1` returned a melting point of 122 °C. On to `CCN1C(=O)C(C)(C)C(=O)N(C)c2cc(CN(CCn3ccc4oc(C)cc4c3=O)Cc3cccc4c3OCO4)ccc21`, for which the melting point lay within 136 to 138 °C. `Cc1nc2ccc(NC(=O)CC34CC5CC(CC(C5)C3)C4)cc2s1` came in with a melting point of 172 °C.

Molecule `COC(=O)c1cccc(C(=O)NC(Nc2c(Nc3cccnc3)c(=O)c2=O)C(C)(C)C)c1` (configuration not stated) yielded a melting point of 228 to 229 °C. Turning to `CCCNC1Cc2ccc(C3=NNC(=O)CC3)cc2C1` (configuration not stated), the melting point lay in the range of 137 to 138 °C.

Take `CCCn1c(=O)c2c(nc(/C=C/c3cccs3)n2C)n(CCC)c1=O`: the melting point fell in the range of 185 to 186 °C. As for `CCOC(=O)C(Cc1ccc(C)c(OC(F)(F)C(F)F)c1)C(=O)c1ccc(F)cc1` (configuration not stated), the figure is 52 to 53 °C; as for `Nc1sc2c(c1C(=O)c1cccc3ccccc13)CCN(Cc1ccccc1)C2`, 178 to 180 °C. As for `O=c1ncc(Cl)cn1COCc1ccccc1`, the figure is 125 °C; as for `CN(CCCCCCNC(=O)NCCCOc1cccc(CN2CCCCC2)c1)CCN(Cc1ccc(F)cc1)c1ccccn1`, 65 to 69 °C; as for `CC(=O)NCC1Cc2cccc3cccc1c23` (configuration not stated), 145 °C.

Molecule `O=C(O)CCOc1ccccc1CNC(=O)C1Cc2ccccc2N1S(=O)(=O)c1ccc(-c2cccc(C(F)(F)F)c2)cc1` (configuration not stated) returned a melting point of 100 °C. In the case of `CCCCOCCOc1ccc(-c2ccc3c(c2)C=C(C(=O)Nc2ccc(SCc4nccn4CCCC(N)=O)cc2)CCN3CC(C)C)cc1` it was 142 to 143 °C; in that of `O=[N+]([O-])c1ccc(CCN2CCN(c3ccc([N+](=O)[O-])cc3)CC2)cc1`, 143 to 145 °C; in that of `CNc1cn(-c2cncnc2)nc1Cl`, 111 to 114 °C. Molecule `COc1ccc(C2CNCc3ccc(C)cc32)cc1OC` (configuration not stated) showed a melting point of 94 to 96 °C. As for `CC1(C)CC(=O)N(CC(CS(=O)(=O)c2ccc(-c3ccc(F)cc3)cc2)N(O)C=O)C(=O)C1` (configuration not stated), the melting point lay in the range of 105 to 109 °C. For `COc1ccccc1C1(O)CCN(C2CCN(C(=O)c3cc(C)cc(C)c3)C(Cc3ccccc3)C2)CC1` (configuration not stated), the melting point was determined as 213 °C. The molecule `COc1ccc2c(c1)c(-c1cc3nccnc3[nH]1)cn2Cc1ccccc1` gave a melting point of 240 to 244 °C. `COC(C(C)C)C(C)(C)C(=O)Nc1ccc(Cl)cc1` (configuration not stated) displayed a melting point of 103 to 107 °C. In the case of `CCC(=O)COc1nn(CC(=O)CC)c(-c2ccc(F)cc2)c1-c1ccc(S(C)(=O)=O)cc1`, the melting point was in the range of 56 to 58 °C. Consider `CC#CC1(C2CC2)OC(=O)Nc2ccc(-c3cccc(Cl)c3)cc21` (configuration not stated), for which the melting point is 178 to 179 °C.

On to `COC1=CC(=O)C(=O)C=C1NCCCl`, for which the melting point fell in the range of 150 to 152 °C. Consider `CC(C)(C)c1cc(-c2nn(Cc3cccs3)c3ncccc23)cc(C(C)(C)C)c1O`, for which the melting point fell in the range of 138 to 141 °C. As to `O=C(Nc1ccc(F)cc1)C1=C(C(=O)Nc2cc(OC3CCCC3)c(Cl)cc2F)CCCC1`, the melting point fell in the range of 209 to 210 °C.

With `CCCC(=O)c1cc(O)c(O)c([N+](=O)[O-])c1`, the melting point was in the range of 88 to 90 °C. Molecule `CCOC(=O)C1=C(C)NC(CF)=C(C(=O)OCC)C1c1cccc([N+](=O)[O-])c1` (configuration not stated) displayed a melting point of 139 to 141 °C. `CCOc1ccccc1CNc1nc(N)n2nc(-c3ccco3)nc2n1`: the melting point lay within 243 to 246 °C. In turn, `CCCCCCCCCCCCCCOc1ccc(NCc2cccnc2)cc1` returned a melting point of 75 to 76 °C.

The molecule `S=C(Cc1ccccc1)N1CCOCC1` displayed a melting point of 115 to 116 °C. For `COC(=O)c1cc(-c2ccc(OC)cc2)nn(CCC#N)c1=O`, the melting point is 141 to 143 °C. In the case of `CC(=CC(=O)c1ccc(C(F)(F)F)cc1[N+](=O)[O-])N(C)C` it was 122 °C; in that of `CC(C)CNC(=O)c1ccc(C2(F)CC2c2ccc(Br)c(Br)c2)cc1` (configuration not stated), 132 °C; in that of `C#CCN(Cc1ccc2nc(C)[nH]c(=O)c2c1)c1ccc(C(=O)NC(COC(C)=O)c2cccc([N+](=O)[O-])c2)cc1` (configuration not stated), 133 to 135 °C. `CC(C)CCN1C(=O)C(NC(=O)Oc2ccccc2)C(=O)N(c2ccccc2)c2ccc(Cl)cc21` (configuration not stated) yielded a melting point of 190 to 195 °C. With `Cn1ncc(C(=O)NN)c1S(N)(=O)=O`, the melting point lay within 172 to 173 °C. For `O=C1CCC(N2Cc3c(NCc4ccco4)cccc3C2=O)C(=O)N1` (configuration not stated), the melting point fell in the range of 248 to 250 °C. `CCO[C@@H](Cc1ccc(-c2nc([N+](=O)[O-])nn2C)cc1)C(=O)OC` yielded a melting point of 119 °C. For the molecule `Nc1cccc(-n2c(=O)c(Cc3cccnc3)nc3cccnc32)c1`, the melting point was 168 to 170 °C. `CCC1(CC)C(=O)C(C)N(c2ccc(C#N)c(Cl)c2)C1=O` (configuration not stated): the melting point was 93.5 to 94.5 °C. `Nc1nc2ccc(S(=O)(=O)n3c(CCCC(=O)O)cc4cc(Cl)ccc43)cc2o1` came in with a melting point of 220 °C. `CSc1nn2c(N)cc(C)nc2c1S(=O)(=O)c1ccc(Br)cc1`: the melting point is above 230 °C. In the case of `COc1ccc2cc(C(=O)O)oc(=O)c2c1OC` it was 262 to 263 °C; in that of `CC(=O)OCC1OC(Oc2cc(C)cc(O)c2C(C)=O)C(OC(C)=O)C(OC(C)=O)C1OC(C)=O` (configuration not stated), 140 to 142 °C; in that of `CCOC(=O)/C(C#N)=C(\N)C(CC)CC`, 87 °C.

In the case of `COc1cc(C(C)C)c2c(c1)S(=O)(=O)N(COc1cc(C)nn1C)C2=O`, the melting point lay in the range of 146 to 147 °C.

`COC(=O)Cn1c(C(=O)Nc2nc(-c3cc(OC)ccc3OC)c(CC3CCCCC3)s2)cc2cc(C)cc(C)c21` displayed a melting point of 89 to 92 °C. `Cc1[nH]n(C(C)(C)C)c2nc(Cc3ccccc3)nc(=O)c1-2`: the melting point lay in the range of 196 to 197 °C.

With `COc1ccc(-c2nc(N3CCOCC3)sc2-c2ccc(OC)cc2)cc1`, the melting point is 133 to 135 °C.

For the molecule `Clc1cc2c(cc1Cn1c(C3OCCO3)nc(Br)c1Br)OCO2`, the melting point is 188 °C. Consider `ClC1=Nc2cc(Cl)ccc2Sc2cscc21`, for which the melting point lay in the range of 234 to 235 °C. `CS(=O)(=O)Cc1cnc2ccsc2c1O`: the melting point was above 300 °C. As to `CC(C)N(C)C(=O)N1N=C2c3cc(F)ccc3OC[C@@H]2[C@@H]1c1ccccc1` (racemic), the melting point lay in the range of 102 to 105 °C.
